Here are results for 36 compounds from patent US20160039825A1 (BIOGEN MA INC., priority 2013, published 2016).

One may read the IC50 as the midpoint of a concentration-inhibition curve. A higher IC50 goes with lower potency.

In the experiment the target is T1, Human ATX protein (Homo sapiens, UniProt Q13822).
T1 construct: made in house
The experiment can be described thus: Autotaxin (ATX) assay, FRET with FS-3 substrate. It counts as biochemical. From the text: ATX (Autotaxin) is a 125 KDa glycoprotein with lysophospholipase D (LPLD) activity that generates the bioactive lipid lysophosphatidic acid (LPA) from lysophosphatidylcholine (LPC). The ATX biochemical assay utilizes a FRET (fluorescence resonance energy transfer) technology platform. The fluorescence signal of FRET substrate FS-3 is quenched due to intra-molecular FRET of a fluorophore to a non-fluorescing quencher (Ferguson, C. G., et al., Org Lett. 2006 May 11; 8(10): 2023-2026, which is incorporated by reference in its entirety). ATX catalyzes the hydrolysis of the substrate which separates the dabsyl quencher from the fluorescein reporter, which becomes fluorescent. The reaction is monitored by a SpectraMax M5 (Molecular Devices, Sunnyvale, Calif.) with at excitation wavelength 485 nm and emission wavelength […].
Fatty acid free-BSA (Sigma A8806): 10 mg/mL in H2O, stored at 4° C.
2×ATX assay buffer: 100 mM Tris, 280 mM NaCl, 10 mM KCl, 2 mM CaCl2, 2 mM MgCl2, pH 7.4.
Human ATX protein: expressed and purified in house. Stored at −80° C.
Substrate FS-3 (Echelon, L-2000): 100 μg in 77.74 μL H2O (1 mM stock), stored at −20° C.
384-well flat bottom plates—Corning #3575.
Compound dilution—All compounds were provided at 10 mM in 100% DMSO. In the first well, 2 μL of 10 mM compound was added to 78 μL of DMSO (1:40 dilution). In subsequent wells 3-fold dilution (total 10 dilutions) were performed.
1×ATX assay buffer was made up with a final concentration of 1 mg/mL fatty acid free-BSA using 2×ATX assay buffer, 10 mg/ml fatty acid free-BSA and ddH2O.
ATX protein was diluted with 1×ATX assay buffer to a concentration of 1.32 μg/mL (1.32×). 38 μL was added per well to the assay plate. The final concentration of ATX in the reaction as 1.0 μg/mL.
2 μL per well of compounds was transferred to provide the desired concentration. The plate was centrifuged, then incubated at room temperature for 30 minutes on the shaker.
FS-3 was diluted with 1×ATX assay buffer to a concentration of FS-3 of 10 μM (5×). Then, 10 μL was added per well to the assay plate. The final concentration of FS-3 in the reaction was 2 μM. The plate was centrifuged. The plate was kept shaking at room temperature for 2 hours. Because FS-3 substrate is light sensitive, plates were kept covered and protected from light.
Fluorescence was measured using SpectraMax M5 (excitation at 485 nm/emission at 538 nm, top read).

[1] abbreviates: upper bound bins (no greater than 100, 250 or 500 nM), FS-3 2 μM, ATX 1.0 μg/mL.

`C[C@@H]1CNC[C@@H](C)N1C(=O)c1cc2n(n1)CCCN(C(=O)OCc1cc(C(F)(F)F)cc(C(F)(F)F)c1)C2` [Example 248] yielded an IC50 under setting [1] of at most 100 nM. Consider `CNC1CCN(C(=O)c2cc3n(n2)CCCN(C(=O)OCc2cc(Cl)cc(C(F)(F)F)c2)C3)C1` (stereo not drawn) [Example 195], for which the IC50 under setting [1] was at most 100 nM. The same measure, in the same setting: the figure for `CC(C)(C)OC(=O)N1CC=C(c2cc3n(n2)CCN(C(=O)OCc2cc(C(F)(F)F)cc(C(F)(F)F)c2)C3)CC1` [Example 497] is at most 100 nM; for `Cc1cc2n(n1)CCCN(C(=O)OCc1cc(F)cc(C(F)(F)F)c1)C2` [Example 128, 3-Fluoro-5-(trifluoromethyl)benzyl 2-methyl-7,8-dihydro-4H-pyrazolo[1,5-a][1,4]diazepine-5(6H)-carboxylate] it is at most 250 nM; for `CN1CCN(C(=O)c2cc3n(n2)CCCN(C(=O)OCc2cc(Cl)cc(C(F)(F)F)c2)C3)C(C)(C)C1` [Example 176, 3-chloro-5-(trifluoromethyl)benzyl 2-(2,2,4-trimethylpiperazine-1-carbonyl)-7,8-dihydro-4H-pyrazolo[1,5-a][1,4]diazepine-5(6H)-carboxylate] it is at most 100 nM.

Turning to `O=C(OCc1cc(Cl)cc(Cl)c1)N1CCCn2nc(C(=O)N3CCC(C(F)(F)F)CC3)cc2C1` [Example 22, 3,5-Dichlorobenzyl 2-(4-(trifluoromethyl)piperidine-1-carbonyl)-7,8-dihydro-4H-pyrazolo[1,5-a][1,4]diazepine-5(6H)-carboxylate], the IC50 under setting [1] is at most 100 nM. Same read-out and setting: the result for `CN1CC2CN(C(=O)c3cc4n(n3)CCCN(C(=O)OCc3cc(Cl)cc(C(F)(F)F)c3)C4)CC2C1` (stereo not drawn) [Example 168] reads at most 100 nM; that for `O=C(O)c1cc2n(n1)CCCN(C(=O)OCc1cccc(C(F)(F)F)c1)C2` [Example 67, 5-(((3-(Trifluoromethyl)benzyl)oxy)carbonyl)-5,6,7,8-tetrahydro-4H-pyrazolo[1,5-a][1,4]diazepine-2-carboxylic acid], at most 500 nM; that for `CCOC(=O)c1cc2n(n1)CCCN(C(=O)OCc1cc(Cl)cc(Cl)c1)C2` [Example 1, 5-(3,5-Dichlorobenzyl) 2-ethyl 7,8-dihydro-4H-pyrazolo[1,5-a][1,4]diazepine-2,5(6H)-dicarboxylate], at most 500 nM. Still for that read-out and setting: the result for `O=C(OCc1cc(Cl)cc(C(F)(F)F)c1)N1CCCn2nc(C(=O)N3CC4CNCC4C3)cc2C1` (stereo not drawn) [Example 170] reads at most 100 nM; that for `Cc1cc(-c2cc3n(n2)CCCN(C(=O)OCc2cc(C(F)(F)F)cc(C(F)(F)F)c2)C3)ccn1` [Example 368], at most 100 nM; that for `O=C(OCc1cc(Cl)cc(Cl)c1)N1CCCn2cncc2C1` [Example 133, 3,5-Dichlorobenzyl 6,7-dihydro-5H-imidazo[1,5-a][1,4]diazepine-8(9H)-carboxylate], at most 100 nM. On the same count and under the same terms, the figure for `CCOC(=O)c1cc2n(n1)CCCN(C(=O)OCc1cc(C(F)(F)F)cc(C(F)(F)F)c1)C2` [Example 2, 5-(3,5-Bis(trifluoromethyl)benzyl) 2-ethyl 7,8-dihydro-4H-pyrazolo[1,5-a][1,4]diazepine-2,5(6H)-dicarboxylate] is at most 100 nM. As for `CCOC(=O)C1CN(C(=O)OCc2cc(C(F)(F)F)cc(C(F)(F)F)c2)Cc2ccnn21` (stereo not drawn) [Example 405], under “greater than 10 μM”, the IC50 was over 10000 nM. The compound `CC(C)C1CC(Nc2cc3n(n2)CCCN(C(=O)OCc2cc(C(F)(F)F)cc(C(F)(F)F)c2)C3)CCN1` (stereo not drawn) [Example 314] had an IC50 under setting [1] of at most 100 nM.

In turn, `O=C(OCc1cc(C(F)(F)F)cc(C(F)(F)F)c1)N1CCCn2nc(C(=O)N3CCC(F)CC3)cc2C1` [Example 32, 3,5-Bis(trifluoromethyl)benzyl 2-(4-fluoropiperidine-1-carbonyl)-7,8-dihydro-4H-pyrazolo[1,5-a][1,4]diazepine-5(6H)-carboxylate] displayed an IC50 under setting [1] of at most 100 nM.

In the case of `O=C(OCc1cc(C(F)(F)F)cc(C(F)(F)F)c1)N1CCn2c(nnc2C(F)(F)F)C1` [Example 134, 3,5-Bis(trifluoromethyl)benzyl 3-(trifluoromethyl)-5,6-dihydro-[1,2,4]triazolo[4,3-a]pyrazine-7(8H)-carboxylate], the IC50 under setting [1] is at most 500 nM. Same read-out and setting: the figure for `CNC1CCN(C(=O)c2cc3n(n2)CCCN(C(=O)OCc2cc(C(F)(F)F)cc(C(F)(F)F)c2)C3)C1` (stereo not drawn) [Example 243] is at most 100 nM; for `CC1CN(CC(=O)c2cc3n(n2)CCCN(C(=O)OCc2cc(Cl)cc(C(F)(F)F)c2)C3)CCO1` (stereo not drawn) [Example 268] it is at most 100 nM. Under setting [1], `O=C(OCc1cc(C(F)(F)F)cc(C(F)(F)F)c1)N1CCCn2nc(C3CC4CCC(C3)N4)cc2C1` (stereo not drawn) [Example 377] returned an IC50 of at most 100 nM. The same measure, in the same setting: the figure for `O=C(OCc1cc(Cl)cc(C(F)(F)F)c1)N1CCCn2nc(C(=O)N3CCNC(C(F)(F)F)C3)cc2C1` (stereo not drawn) [Example 189] is at most 100 nM; for `O=C(O)c1cc2n(n1)CCCN(C(=O)OCc1cc(C(F)(F)F)cc(C(F)(F)F)c1)C2` [Example 8, 5-(((3,5-Bis(trifluoromethyl)benzyl)oxy)carbonyl)-5,6,7,8-tetrahydro-4H-pyrazolo[1,5-a][1,4]diazepine-2-carboxylic acid] it is at most 100 nM.

Regarding `O=C(OCc1cc(Cl)cc(C(F)(F)F)c1)N1CCCn2nc(CNC3=NCCS3)cc2C1` [Example 153, 3-chloro-5-(trifluoromethyl)benzyl 2-(((4,5-dihydrothiazol-2-yl)amino)methyl)-7,8-dihydro-4H-pyrazolo[1,5-a][1,4]diazepine-5(6H)-carboxylate], the IC50 under setting [1] was at most 100 nM. Same read-out and setting: the result for `O=C(O)C1CC2CCCC(C1)N2C(=O)c1cc2n(n1)CCCN(C(=O)OCc1cccc(Cl)c1)C2` (stereo not drawn) [Example 57, 9-(5-((3-Chlorobenzyloxy)carbonyl)-5,6,7,8-tetrahydro-4H-pyrazolo[1,5-a][1,4]diazepine-2-carbonyl)-9-aza-bicyclo[3.3.1]nonane-3-carboxylic acid] reads at most 250 nM; that for `O=C(OCc1cc(Cl)cc(C(F)(F)F)c1)N1CCCn2nc(C(=O)N3CCNCC34CCCC4)cc2C1` [Example 234], at most 100 nM; that for `N#CC1CNCCN1C(=O)c1cc2n(n1)CCCN(C(=O)OCc1cc(C(F)(F)F)cc(C(F)(F)F)c1)C2` (stereo not drawn) [Example 245], at most 100 nM.

Under setting [1], `NCCCCNC(=O)c1cc2n(n1)CCCN(C(=O)OCc1cc(C(F)(F)F)cc(C(F)(F)F)c1)C2` [Example 182] had an IC50 of at most 100 nM. Under setting [1], `O=C(NC1COC1)c1cc2n(n1)CCCN(C(=O)OCc1cc(C(F)(F)F)cc(C(F)(F)F)c1)C2` [Example 505] showed a 50% inhibitory concentration (IC50) of at most 100 nM. `COC(=O)C1CC2CCCC(C1)N2C(=O)c1cc2n(n1)CCCN(C(=O)OCc1cc(Cl)cc(Cl)c1)C2` (stereo not drawn) [Example 95, 3,5-Dichlorobenzyl 2-(3-(methoxycarbonyl)-9-azabicyclo[3.3.1]nonane-9-carbonyl)-7,8-dihydro-4H-pyrazolo[1,5-a][1,4]diazepine-5(6H)-carboxylate] yielded an IC50 under setting [1] of at most 100 nM. On the same count and under the same terms, the figure for `CN1CCN(C(=O)c2cc3n(n2)CCCN(C(=O)OCc2cc(C(F)(F)F)cc(C(F)(F)F)c2)C3)C2(CCC2)C1` [Example 233] is at most 100 nM. Still for that read-out and setting: the result for `O=C(O)C1CC2CCCC(C1)N2C(=O)c1cc2n(n1)CCCN(C(=O)OCc1cc(F)cc(F)c1)C2` (stereo not drawn) [Example 62, 9-(5-((3,5-Trifluorobenzyloxy)carbonyl)-5,6,7,8-tetrahydro-4H-pyrazolo[1,5-a][1,4]diazepine-2-carbonyl)-9-aza-bicyclo[3.3.1]nonane-3-carboxylic acid] reads at most 100 nM; that for `O=C(OCc1cc(C(F)(F)F)cc(C(F)(F)F)c1)N1CCn2nc(C3CN4CCC[C@@H]4CO3)cc2C1` (stereo partly drawn) [Example 256, 3,5-bis(trifluoromethyl)benzyl 2-((8aR)-hexahydro-1H-pyrrolo[2,1-c][1,4]oxazin-3-yl)-6,7-dihydropyrazolo[1,5-a]pyrazine-5(4H)-carboxylate], at most 100 nM; that for `O=C(OCc1cc(C(F)(F)F)cc(C(F)(F)F)c1)N1CCCn2nc(CNC3CC3)cc2C1` [Example 513], at most 250 nM.

`N#CC1CN(C(=O)c2cc3n(n2)CCCN(C(=O)OCc2cc(Cl)cc(C(F)(F)F)c2)C3)CCN1` (stereo not drawn) [Example 171]: the IC50 under setting [1] was at most 100 nM.

On to `CC(c1cc2n(n1)CCN(C(=O)OCc1cc(C(F)(F)F)cc(C(F)(F)F)c1)C2)N1CCC(O)CC1` (stereo not drawn) [Example 457], for which the IC50 under setting [1] is at most 250 nM.

Under setting [1], `CC(NC1CC1)c1cc2n(n1)CCCN(C(=O)OCc1cc(C(F)(F)F)cc(C(F)(F)F)c1)C2` (stereo not drawn) [Example 508] returned an IC50 of at most 100 nM.
